This note sets out measurements from ChEMBL document CHEMBL1201862, “PubChem BioAssay data set” (2004).

SMILES strings stand for the structures.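 These data come from cells grown in 96-well plates and exposed to compound for 48 hours at five concentrations. The concentration for 50% growth inhibition is given as GI50.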 Activity calls are given as the source filed them. Rule as the data show it: active = GI50 up to about 1.1 µM and inactive = higher.

Some test systems named below: COLO 205; OVCAR-5; A549; NCI/ADR-RES; ACHN; A498; SK-OV-3; U-251; SK-MEL-28; CAKI-1; UO-31; K562; OVCAR-4; HCT-15; 786-0; KM12; SF-295; NCI-H460; HOP-92; OVCAR-3.
What all share (experiment): NCI anticancer screen, dose series, 48 h

With `CN1C(=O)c2ccccc2OC12C=Cc1ccc(O)cc1O2` (stereo not given), the GI50 with COLO 205 was 22.2 µM (inactive); in the experiment on OVCAR-5, 20.7 µM (inactive); in the experiment on A549, 30.8 µM (inactive); in the experiment with NCI/ADR-RES, 13.5 µM (inactive); in the experiment with ACHN, 23 µM (inactive); in the experiment with A498 it was 18.4 µM (inactive). The GI50 in the experiment on SK-OV-3 was 19.5 µM (inactive); in the experiment on U-251 it was 24.8 µM (inactive); in the experiment on SK-MEL-28 it was 21.3 µM (inactive); in the experiment on CAKI-1 it was 16.1 µM (inactive); in the experiment on UO-31 it was 18.7 µM (inactive); in the experiment with K562 it was 24.1 µM (inactive). Besides, the GI50 in the experiment on OVCAR-4 was 28.1 µM (inactive); in the experiment with HCT-15, 29.6 µM; with 786-0, 31.6 µM (inactive); with KM12 it was 25.2 µM (inactive); with SF-295 it was 29.9 µM (inactive); in the experiment on NCI-H460, 20 µM (inactive). Further, the values for the GI50 with HOP-92 and in the experiment on OVCAR-3 were 27.2 µM (inactive) and 17.1 µM (inactive), respectively.
As to `COc1ccc(CC(COS(=O)(=O)c2ccc(C)cc2)NS(=O)(=O)c2ccc(C)cc2)cc1` (stereo not given), the GI50 with COLO 205 is 11.7 µM (inactive); with OVCAR-5, 17.5 µM (inactive); with A549, 12.1 µM (inactive); in the experiment with NCI/ADR-RES it was 11 µM (inactive); in the experiment with ACHN, 12.3 µM (inactive); in the experiment with A498 it was 12.8 µM (inactive). The GI50 with SK-OV-3 was 15.2 µM (inactive); in the experiment on U-251, 11.8 µM (inactive); in the experiment with SK-MEL-28 it was 15.5 µM (inactive); in the experiment on CAKI-1 it was 17.4 µM (inactive); with UO-31 it was 12.4 µM (inactive); in the experiment with K562 it was 43.2 µM (inactive). Besides, the GI50 was 20.7 µM (inactive) with OVCAR-4; 14.2 µM in the experiment with HCT-15; 16 µM (inactive) in the experiment with 786-0; 16.9 µM (inactive) in the experiment with KM12; 13.7 µM (inactive) in the experiment with SF-295; 11.5 µM (inactive) with NCI-H460. Besides, the GI50 is 6.56 µM (inactive) with HOP-92 and 9.55 µM (inactive) with OVCAR-3.
Consider `CN(C)C(=S)C(Cl)(c1ccccc1)c1ccccc1`, for which the GI50 in the experiment with COLO 205 is 85.7 µM (inactive); in the experiment on OVCAR-5, > 100 µM (inactive); in the experiment on A549, 59.8 µM (inactive); with NCI/ADR-RES, 89.5 µM (inactive); with ACHN, 90.2 µM (inactive); in the experiment with A498, > 100 µM (inactive). In addition, the GI50 with SK-OV-3 is > 100 µM (inactive); in the experiment with U-251, 36.1 µM (inactive); in the experiment on SK-MEL-28, > 100 µM (inactive); in the experiment on CAKI-1 it was > 100 µM (inactive); in the experiment on UO-31, 84.9 µM (inactive); in the experiment on K562, 36.2 µM (inactive). Further, the GI50 with OVCAR-4 was 35.4 µM (inactive); in the experiment with HCT-15, 63 µM; with 786-0 it was 44.4 µM (inactive); with KM12, 46.3 µM (inactive); in the experiment on SF-295 it was > 100 µM (inactive); in the experiment with NCI-H460, > 100 µM (inactive). The GI50 in the experiment with HOP-92 is > 100 µM (inactive); in the experiment with OVCAR-3, 82 µM (inactive).
Regarding `O/N=N/c1ccccn1.OCC1OC2OC3C(CO)OC(OC4C(CO)OC(OC5C(CO)OC(OC6C(CO)OC(OC7C(CO)OC(OC1C(O)C2O)C(O)C7O)C(O)C6O)C(O)C5O)C(O)C4O)C(O)C3O` (stereo not given), the GI50 in the experiment with COLO 205 is > 100 µM (inactive); with OVCAR-5 it was > 100 µM (inactive); in the experiment with A549, > 100 µM (inactive); in the experiment on NCI/ADR-RES, 31.9 µM (inactive); in the experiment with ACHN, > 100 µM (inactive); in the experiment with A498 it was > 100 µM (inactive). The GI50 in the experiment on SK-OV-3 was > 100 µM (inactive); in the experiment with U-251, > 100 µM (inactive); in the experiment with SK-MEL-28 it was 62.5 µM (inactive); in the experiment with CAKI-1, > 100 µM (inactive); in the experiment on UO-31 it was > 100 µM (inactive); in the experiment on K562, 48.4 µM (inactive). Besides, the GI50 is > 100 µM (inactive) in the experiment on OVCAR-4; > 100 µM in the experiment on HCT-15; > 100 µM (inactive) in the experiment with 786-0; 82.4 µM (inactive) in the experiment with KM12; > 100 µM (inactive) in the experiment with SF-295; 68.7 µM (inactive) in the experiment on NCI-H460. For the same molecule, the GI50 with HOP-92 is > 100 µM (inactive); in the experiment with OVCAR-3, 40.8 µM (inactive).
In the case of `Nc1nc2c(ncn2Cc2ccc(CO)cc2)c(=O)[nH]1`, the GI50 in the experiment with COLO 205, with OVCAR-5, in the experiment on A549, in the experiment with NCI/ADR-RES, in the experiment on ACHN and in the experiment with A498 was > 100 µM (inactive) throughout. Moreover, the GI50 with SK-OV-3, with U-251, with SK-MEL-28, in the experiment with CAKI-1, with UO-31 and in the experiment with K562 was > 100 µM (inactive) throughout. Also, the GI50 in the experiment with OVCAR-4 was > 100 µM (inactive); in the experiment with HCT-15, > 100 µM; in the experiment with 786-0 it was > 100 µM (inactive); in the experiment on KM12, > 100 µM (inactive); in the experiment with SF-295 it was > 100 µM (inactive); in the experiment on NCI-H460 it was > 100 µM (inactive). Further, the GI50 in the experiment on HOP-92 and in the experiment on OVCAR-3 was > 100 µM (inactive) each time.
With `C=C1CC2(CCCC3(CC(=C)C(=O)O3)C2(C)C)OC1=O` (stereo not given), the GI50 was 2.21 µM (inactive) in the experiment with COLO 205; 1.58 µM (inactive) in the experiment on OVCAR-5; 13.8 µM (inactive) with A549; 13.2 µM (inactive) in the experiment on NCI/ADR-RES; 1.07 µM (active) in the experiment with ACHN; 21.4 µM (inactive) in the experiment on A498. For the same molecule, the GI50 in the experiment on SK-OV-3 was 20.5 µM (inactive); in the experiment with U-251, 1.42 µM (inactive); with SK-MEL-28 it was 2.05 µM (inactive); in the experiment with CAKI-1 it was 2.7 µM (inactive); in the experiment on UO-31, 3.06 µM (inactive); in the experiment with K562, 3.38 µM (inactive). Also, the GI50 in the experiment on OVCAR-4 was 4.85 µM (inactive); in the experiment with HCT-15, 0.491 µM; in the experiment on 786-0 it was 1.81 µM (inactive); in the experiment on KM12, 8.11 µM (inactive); with SF-295, 16.5 µM (inactive); in the experiment with NCI-H460 it was 18.7 µM (inactive). Further, the GI50 in the experiment with HOP-92 is 5.85 µM (inactive); in the experiment on OVCAR-3, 1.96 µM (inactive).
Regarding `COc1ccc2c(c1)C(=O)CCc1cc(OC)c(OC)c(OC)c1-2`, the GI50 is 0.0512 µM (active) with COLO 205; 0.0783 µM (active) in the experiment with OVCAR-5; 0.0687 µM (active) in the experiment on A549; 0.0214 µM (active) with NCI/ADR-RES; 0.0863 µM (active) in the experiment on ACHN; 0.0504 µM (active) in the experiment with A498. For the same molecule, the GI50 in the experiment on SK-OV-3 is < 0.01 µM (active); in the experiment with U-251, 0.0285 µM (active); in the experiment on SK-MEL-28, 0.0818 µM (active); in the experiment on CAKI-1, 0.127 µM (active); with UO-31, 0.0631 µM (active); in the experiment on K562 it was 0.0366 µM (active). In addition, the GI50 in the experiment with OVCAR-4 was 0.0582 µM (active); in the experiment on HCT-15 it was 0.0359 µM; in the experiment with 786-0, 0.0542 µM (active); with KM12, 0.0298 µM (active); with SF-295, 0.0384 µM (active); in the experiment with NCI-H460, 0.0413 µM (active). Also, the GI50 with HOP-92 is 0.135 µM (active); in the experiment on OVCAR-3, 0.0409 µM (active).
